# Where two headings read alike, the source gives them in different places.
# Columns and labels:
# solubility in water = assay type: physicochemical
# Description: To 6.22 g (20.8 mmol) of ricinoleic acid and 4.00 g of triethylamine in 150 mL THF was added 2.31 g (9.0 mmol) of ethylenediamine tetraacetic acid dianhydride. After stirring 15 min at 40° C., 20 mL of acetonitrile was added, since ethylenediamine tetraacetic acid dianhydride was not dissolved completely. The solution was stirred for 72 h under reflux and gradually turned yellow during this time. The solvent was removed under reduced pressure. The mixture was suspended in 100 mL of ether and extracted twice with 50 mL of saturated aqueous sodium chloride. After drying the ether solution, the solvent was removed under reduced pressure. The residue was suspended in methanol and filtered. The solvent was removed under reduced pressure. The residual oil was purified by chromatography on silica gel, eluted with a gradient of acetone/methanol (70:30 v/v to 0:100 v/v). N,N-bis(oleic acid-12-oxycarbonylmethyl)-N-N′-bis(carboxylmethyl) ethylenediamine was isolated as a yellow solid with a yield of 1.23 g (14%).
# [1] = test system: PLA2 activities derived from human platelets and human polymorphonuclear leukocytes (PMNs); test: in vitro PLA2 activities from human platelets and PMNs; assay type: biochemical; conditions: unesterified cis-unsaturated fatty acids
# Source text: Oxidation of the sarcoplasmic reticulum of muscle and of phospholipid membranes predisposes them to phospholipase degradation. Phospholipid membranes that have been oxidized at particular sites may appear intact and maintain functional activity, but their oxidation makes them vulnerable to degradation and destruction by PLA2 or other phospholipases from endogenous or exogenous sources.
# clone W2 (P.falciparum) = test: 3H-hypoxanthine incorporation, P.falciparum clone W2; assay type: cell-based; conditions: Plasmodium falciparum
# clone D6 (P. falciparum) = test: 3H-hypoxanthine incorporation, P.falciparum clone D6; assay type: cell-based; conditions: Plasmodium falciparum
# epidermis cell turnover = test: cell turnover rate (dansyl chloride); assay type: in vivo, human
# Description: Two PX compounds PX-11 and PX-13 were evaluated in a cream formulation prepared under GMP. The chemicals were formulated into a bland cream and evaluated in the following human or mouse skin tests: (1) occluded patch test for irritation; (2) cell turnover rate; (3) transepidermal water loss; (4) skin moisturization; and (5) reduction in erythema after induced sunburn. The human skin tests were conducted on three volunteer female subjects, ages 29-32; a cream base with no added active was included as a control, while the untreated skin served as an additional basis for evaluation. Sunburn tests were performed on a total of 30 hairless albino mice. 2. Cell turnover rate: This parameter was measured by adsorption of dansyl chloride, in which 3% dansyl chloride was incorporated into petrolatum. This salve was applied over a 2.5 cm diameter circular area in the upper arm and a patch applied. 24 hours later the patch was removed. The intensity of dansyl chloride fluorescence was indicative of the cell turnover rate in the epidermis.
# epidermal layer = test: transepidermal water loss; assay type: in vivo, human
# Description: (§1) Two PX compounds PX-11 and PX-13 were evaluated in a cream formulation prepared under GMP. The chemicals were formulated into a bland cream and evaluated in the following human or mouse skin tests: (1) occluded patch test for irritation; (2) cell turnover rate; (3) transepidermal water loss; (4) skin moisturization; and (5) reduction in erythema after induced sunburn. The human skin tests were conducted on three volunteer female subjects, ages 29-32; a cream base with no added active was included as a control, while the untreated skin served as an additional basis for evaluation. Sunburn tests were performed on a total of 30 hairless albino mice. 3. Transepidermal water loss. This parameter was measured by affixing a flow cell on the forearm site, applying the cream, waiting 20 minutes, then flushing the volume with nitrogen and noting the moisture content of the effluent gases.
# outer skin layers = test: skin moisturization (20 megahertz ultrasound); assay type: in vivo, human; conditions: for Ultrasound Density Score: 30 minutes after application
# Description: as §1, with “4. Skin moisturization. Skin moisturization” for “3. Transepidermal water loss. This parameter”, “using 20 megahertz ultrasound (the presence of moisture produces” for “by affixing”, “density decrease in” for “flow cell on”, “outer skin layers), before and 30 minutes after product application to” for “forearm site, applying”, “forearm.” for “cream, waiting 20 minutes, then flushing the volume with nitrogen and noting the moisture content of the effluent gases.”
# [2] = test system: ultraviolet-induced erythema; test: protection against ultraviolet-induced erythema; assay type: in vivo, hairless albino mice
# Description: The human skin tests were conducted on three volunteer female subjects, ages 29-32; a cream base with no added active was included as a control, while the untreated skin served as an additional basis for evaluation. Sunburn tests were performed on a total of 30 hairless albino mice.
# 5.Protection against ultraviolet-induced ervthema. The protection against ultraviolet-induced erythema (i.e., the burn and irritation produced after exposure to ultraviolet radiation), was measured by first irradiating 12 mice with destructive 3130 angstrom (Å) rays, applying the creams, and then evaluating the skin cells for erythema.
molecule,measurement,setting,value
"CCCCCCC(CC=CCCCCCCCC(=O)O)OC(=O)CN(CCN(CC(=O)O)CC(=O)OC(CC=CCCCCCCCC(=O)O)CCCCCC)CC(=O)O (centres unmarked) [N,N-Bis(oleic acid-12-oxycarbonylmethyl)-N-N′bis(carboxylmethyl) ethylenediamine]",solubility in water,solubility in water,readily soluble in water
CCCCC/C=C\C/C=C\C/C=C\C/C=C\CCCC(=O)O [arachidonic acid],inhibition of in vitro PLA2 activity,[1],inhibited
CCN(CC)CCCC(C)Nc1ccnc2cc(Cl)ccc12 (centres unmarked) [chloroquine],IC50,"clone W2 (P.falciparum); W2, read-out: IC50 growth",30 ng/mL
same,IC50,"clone D6 (P. falciparum); D6, read-out: IC50 growth",1.6 ng/mL
CCCCC/C=C\C/C=C\CCCCCCCC(=O)O [linoleic acid],inhibition of in vitro PLA2 activity,[1],inhibited
OC(c1cc(C(F)(F)F)nc2c(C(F)(F)F)cccc12)C1CCCCN1 (centres unmarked) [mefloquine],IC50,"clone W2 (P.falciparum); printed as control cultures sensitive to both drugs, compared with clone W2, read-out: IC50 growth",1.3 ng/mL
same,IC50,"clone D6 (P. falciparum); printed as control cultures sensitive to both drugs, compared with clone D6, read-out: IC50 growth",4.3 ng/mL
CCCCCCCC/C=C\CCCCCCCC(=O)O [oleic acid],inhibition of in vitro PLA2 activity,[1],inhibited
tricinyl trioleate [PX-11],Days to Cell Renewal Treated,"epidermis cell turnover; cream-treated skin, upper arm",28.8 days
same,% Change in Cell Turnover Time,epidermis cell turnover; treated vs untreated skin,+34%
same,% Change in Transepidermal Water Loss,"epidermal layer; forearm, 20 minutes after applying cream",+649.0%
same,effect on water loss from the epidermal layer,epidermal layer; in vivo,opened the pores and permitted water to escape
same,effectiveness at promoting water loss vs control,epidermal layer; relative to control cream,10 times
same,Ultrasound Density Score,"outer skin layers; Subject 1, 7 = Best, 1 = Baseline",3
same,Ultrasound Density Score,outer skin layers; Subject 2,3
same,Ultrasound Density Score,outer skin layers; Subject 3,1
same,Ultrasound Density Score Total,"outer skin layers; Total of 3 subjects, 7 = Best, 1 = Baseline",7
same,moisturization properties,outer skin layers; in vivo,good moisturization properties
same,Post-Radiation Erythema Ranking Mean,"[2]; Mean, 1 = Best, 4 = Worst",2
same,Post-Radiation Erythema Ranking,"[2]; Subject 1, 1 = Best, 4 = Worst",2
same,Post-Radiation Erythema Ranking,"[2]; Subject 2, 1 = Best, 4 = Worst",2
same,Post-Radiation Erythema Ranking,"[2]; Subject 3, 1 = Best, 4 = Worst",2
same,erythema reduction vs base cream,"[2]; mouse, in vivo",significantly better than the base cream

# Reference: patent US6423855B1, “Cytoprotective compounds” (Virginia Commonwealth University, priority 1996, dated 2002)
